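Results reflect a 48-hour exposure of cells in 96-well plates to compound at five concentrations. At the TGI there is no net growth.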
Legend:
Experiment in all cases: NCI-60 cell line screen, 48 h
[1] = test system: HCC-2998 colon
[2] = test system: KM12 colon
[3] = test system: SNB-78 CNS
[4] = test system: LXFL 529 NSCLC
[5] = test system: DMS 114 small cell lung
[6] = test system: DMS 273 small cell lung
[7] = test system: M19-MEL melanoma
[8] = test system: KM20L2 colon
[9] = test system: DLD-1 colon
[10] = test system: OVCAR-3 ovarian
[11] = test system: HOP-18 NSCLC
[12] = test system: MCF7 breast
[13] = test system: MDA-MB-435

Compound	TGI [1] [µM]	TGI [2] [µM]	TGI [3] [µM]	TGI [4] [µM]	TGI [5] [µM]	TGI [6] [µM]	TGI [7] [µM]	TGI [8] [µM]	TGI [9] [µM]	TGI [10] [µM]	TGI [11] [µM]	TGI [12] [µM]	TGI [13] [µM]
CC(C)(C)C(=O)OC12/C(=N/O)CCCCCC1c1ccccc12 (stereo unspecified)	> 100	30.1	46.6	30.3	35.4	34.3	30.2	36.5	34.6	32.1	34		
Cc1ccc(NC(=O)CSc2nc(=O)[nH]c3nc[nH]c23)cc1	> 100	> 100								> 100		> 100	> 100
c1c[nH]c(C23C4C5C6C4C2C6C53)n1 (stereo unspecified)	> 100	> 100								> 100		> 100	> 100
CCOP(=O)(OCC)C(C#N)Cc1ccco1 (stereo unspecified)	> 10	> 10								> 10		> 10	> 10
C/C=C/C1OC(O)(C(C)C(O)[C@H](C)C2OC(=O)/C(OC)=C/C(C)=C/[C@@H](C)[C@@H](O)[C@@H](C)C(O)C(C)C/C(C)=C/C=C/C2OC)C[C@@H](OC2CC(O)C(OC(N)=O)C(C)O2)C1C (stereo partly specified)	< 0.01	1.33								3.24		7.65	2.58
CC1=Nc2sc3c(c2C2=NCCN12)CCCC3	> 100	> 100								66.8		48.1	91.6
O=c1[nH]nc(Cc2ccccc2)n1CCO	> 100	> 100								> 100		> 100	> 100
Nc1ccc(C(=O)c2cn(CCN3CCOCC3)c3ccccc23)c2ccccc12	> 100	> 100								> 100		> 100	83
CC(=O)OCC1OC(Oc2cc(C)c(O)cc2C/C=C(\C)CC/C=C(\C)CC(=O)CC(C)C)C(O)C(OC(C)=O)C1OC(C)=O (stereo unspecified)	24.5	29.4								30		43.8	48.4
O=C(CNc1ccccc1[N+](=O)[O-])Nn1c(-c2ccccc2)nc2ccccc2c1=O	26.3	> 10								> 100		34.2	60.1
Cc1ccc(/C(O)=C/c2nc3ccccc3s/c2=N/CS(=O)(=O)c2ccc(C)cc2)cc1	> 10	> 10								> 10		> 10	> 10
Cc1ccc(/C=N/Nc2ccc3ccccc3n2)s1	30.7	> 100								28.9		45.1	56.7
N#Cc1c(-c2ccccc2)[nH]c(=O)n(C2OC(CO)C(O)C(O)C2O)c1=O (stereo unspecified)	> 100	> 100								> 100		> 100	> 100
CC(C)C(/C=C/c1ccc(Cl)c(Cl)c1)=N\NC(=O)N/N=C(/C=C/c1ccc(Cl)c(Cl)c1)C(C)C	> 100	> 100								> 100		> 100	> 100
O=CC12C3CCC1C2C(=O)C3 (stereo unspecified)	> 100	> 100								> 100		> 100	> 100
O=c1c(=O)c2c(Br)sc(Br)c2c1=O	> 100	> 100								35.2		42.3	37.7
CCCCON1C[C@H](OC(C)=O)C(OC(C)=O)[C@H](OC(C)=O)C1 (stereo partly specified)	> 100	> 100								> 100		> 100	> 100
CN(c1ccccc1Cl)S(=O)(=O)c1ccc([N+](=O)[O-])cc1	> 100	> 100								> 100		> 100	> 100
CC(=O)OC[C@@H](OC(C)=O)[C@H](OC(C)=O)[C@@H]1OC(C)(C)O[C@@H]1C1SCCCS1	> 100	> 100								> 100		> 100	> 100
SCCSCCCSCCS	> 100	> 100								> 100		> 100	> 100
NC1=CN2c3ccccc3N(CC(=O)O)C2C=C1 (stereo unspecified)	> 100	> 100								> 100		> 100	> 100
CN(/N=C/c1ccnc2ccccc12)c1ccc(Cl)cc1[N+](=O)[O-]	> 100	> 100								> 100		> 100	> 100
O=C(NCc1cccc2ccccc12)N/N=C\c1ccc(Cl)cc1	> 100	> 100								> 100		> 100	> 100
Cc1cn([C@@H]2O[C@H](CO[Si](C)(C)C(C)(C)C)[C@]3(O[C@H]3C(=O)NN)[C@H]2O[Si](C)(C)C(C)(C)C)c(=O)[nH]c1=O	7.78	32.6								15.9		15.1	23.1
